US20110190365A1, “Insecticidal 4-phenyl-1H-pyrazoles” (Bayer Crop Science AG, priority 2008, published 2011)

assay: log P by HPLC on a reversed-phase column (C18), EEC Directive 79/831 Annex V.A8; assay type: physicochemical; settings: HCOOH
Protocol: The stated log P values were determined in accordance with EEC Directive 79/831 Annex V.A8 by HPLC (High Performance Liquid Chromatography) using a reversed-phase column (C18).

Row | Structure (SMILES) | log P (HCOOH)
1 | Nc1c(-c2cc(Cl)cc(Cl)c2)c(C(F)(F)F)nn1-c1ccc(C(=O)NCc2ncccn2)cc1 [I-A-Q2-137] | I-A-Q2-137: log P (HCOOH): 3.40
2 | Nc1c(-c2cc(Cl)cc(Cl)c2)c(C(F)(F)F)nn1-c1ccc(C(=O)NCC(F)(F)F)cc1 [I-A-Q2-138] | I-A-Q2-138: log P (HCOOH): 4.21
3 | Nc1c(-c2cc(Cl)cc(Cl)c2)c(C(F)(F)F)nn1-c1ccc(C(=O)NCCC(F)(F)F)cc1 [I-A-Q2-139] | I-A-Q2-139: log P (HCOOH): 4.25
4 | Nc1c(-c2cc(Cl)cc(Cl)c2)c(C(F)(F)F)nn1-c1ccc(C(=O)NCC(F)F)cc1 [I-A-Q2-140] | I-A-Q2-140: log P (HCOOH): 3.93
5 | Nc1c(-c2cc(Cl)cc(Cl)c2)c(C(F)(F)F)nn1-c1ccc(C(=O)NC2CCC2)cc1 [I-A-Q2-141] | I-A-Q2-141: log P (HCOOH): 4.21
6 | CCNC(=O)c1ccc(-n2nc(C(F)(F)F)c(-c3cc(Cl)cc(Cl)c3)c2N)cc1 [I-A-Q2-142] | I-A-Q2-142: log P (HCOOH): 3.77
7 | Nc1c(-c2cc(Cl)cc(Cl)c2)c(C(F)(F)F)nn1-c1ccc(C(=O)NCc2cccnc2)cc1 [I-A-Q2-143] | I-A-Q2-143: log P (HCOOH): 2.59
8 | C=CCNC(=O)c1ccc(-n2nc(C(F)(F)F)c(-c3cc(Cl)cc(Cl)c3)c2N)cc1 [I-A-Q2-144] | I-A-Q2-144: log P (HCOOH): 3.93
9 | CCC(C)NC(=O)c1ccc(-n2nc(C(F)(F)F)c(-c3cc(Cl)cc(Cl)c3)c2N)cc1 (stereo not drawn) [I-A-Q2-145] | I-A-Q2-145: log P (HCOOH): 4.34
10 | CC(C)(C)NC(=O)c1ccc(-n2nc(C(F)(F)F)c(-c3cc(Cl)cc(Cl)c3)c2N)cc1 [I-A-Q2-146] | I-A-Q2-146: log P (HCOOH): 4.54
11 | CC(NC(=O)c1ccc(-n2nc(C(F)(F)F)c(-c3cc(Cl)cc(Cl)c3)c2N)cc1)c1ccccn1 (stereo not drawn) [I-A-Q2-147] | I-A-Q2-147: log P (HCOOH): 3.47
12 | Nc1c(-c2cc(Cl)cc(Cl)c2)c(C(F)(F)F)nn1-c1ccc(C(=O)NCc2ccc(Cl)nc2)cc1 [I-A-Q2-148] | I-A-Q2-148: log P (HCOOH): 4.12
13 | Nc1c(-c2cc(Cl)cc(Cl)c2)c(C(F)(F)F)nn1-c1ccc(C(=O)NCC2CC2)cc1 [I-A-Q2-149] | I-A-Q2-149: log P (HCOOH): 4.15
14 | CC(NC(=O)c1ccc(-n2nc(C(F)(F)F)c(-c3cc(Cl)cc(Cl)c3)c2N)cc1)c1ccccc1 (stereo not drawn) [I-A-Q2-150] | I-A-Q2-150: log P (HCOOH): 4.65
15 | CCCNC(=O)c1ccc(-n2nc(C(F)(F)F)c(-c3cc(Cl)cc(Cl)c3)c2N)cc1 [I-A-Q2-151] | I-A-Q2-151: log P (HCOOH): 4.06
16 | Nc1c(-c2cc(Cl)cc(Cl)c2)c(C(F)(F)F)nn1-c1ccc(C(=O)NCc2ccccc2)cc1 [I-A-Q2-152] | I-A-Q2-152: log P (HCOOH): 4.45
17 | CC(NC(=O)c1ccc(-n2nc(C(F)(F)F)c(-c3ccc(Cl)cc3)c2N)cc1)C(F)(F)F (stereo not drawn) [I-A-Q2-153] | I-A-Q2-153: log P (HCOOH): 3.89
18 | CC(C)NC(=O)c1ccc(-n2nc(C(F)(F)F)c(-c3ccc(Cl)c(Cl)c3)c2N)cc1 [I-A-Q2-154] | I-A-Q2-154: log P (HCOOH): 3.75
19 | CC(NC(=O)c1ccc(-n2nc(C(F)(F)F)c(-c3ccc(Cl)c(Cl)c3)c2N)cc1)C(F)(F)F (stereo not drawn) [I-A-Q2-155] | I-A-Q2-155: log P (HCOOH): 4.11

Row | Structure (SMILES) | log P (HCOOH)
20 | Nc1c(-c2ccc(Cl)c(Cl)c2)c(C(F)(F)F)nn1-c1ccc(C(=O)NCC(F)(F)F)cc1 [I-A-Q2-156] | I-A-Q2-156: log P (HCOOH): 3.89
21 | Nc1c(-c2ccc(Cl)c(Cl)c2)c(C(F)(F)F)nn1-c1ccc(C(=O)NC2CC2)cc1 [I-A-Q2-157] | I-A-Q2-157: log P (HCOOH): 3.51
22 | Nc1c(-c2ccc(Cl)c(Cl)c2)c(C(F)(F)F)nn1-c1ccc(C(=O)NCc2ccccn2)cc1 [I-A-Q2-158] | I-A-Q2-158: log P (HCOOH): 2.85
23 | Nc1c(-c2ccc(Cl)c(Cl)c2)c(C(F)(F)F)nn1-c1ccc(C(=O)NCC(F)F)cc1 [I-A-Q2-159] | I-A-Q2-159: log P (HCOOH): 3.65
24 | CC(NC(=O)c1ccc(-n2nc(C(F)(F)F)c(-c3ccc(Cl)c(Cl)c3)c2N)cc1)c1ccccn1 (stereo not drawn) [I-A-Q2-160] | I-A-Q2-160: log P (HCOOH): 3.23
25 | CC(C)NC(=O)c1ccc(-n2nc(C(F)(F)F)c(-c3ccc(Cl)cc3)c2N)cc1 [I-A-Q2-161] | I-A-Q2-161: log P (HCOOH): 3.37
26 | Nc1c(-c2ccc(Cl)cc2)c(C(F)(F)F)nn1-c1ccc(C(=O)NCC(F)(F)F)cc1 [I-A-Q2-162] | I-A-Q2-162: log P (HCOOH): 3.51
27 | Nc1c(-c2ccc(Cl)cc2)c(C(F)(F)F)nn1-c1ccc(C(=O)NC2CC2)cc1 [I-A-Q2-163] | I-A-Q2-163: log P (HCOOH): 3.13
28 | Nc1c(-c2ccc(Cl)cc2)c(C(F)(F)F)nn1-c1ccc(C(=O)NCC(F)F)cc1 [I-A-Q2-164] | I-A-Q2-164: log P (HCOOH): 3.27
29 | CC(NC(=O)c1ccc(-n2nc(C(F)(F)F)c(-c3ccc(Cl)cc3)c2N)cc1)c1ccccn1 (stereo not drawn) [I-A-Q2-165] | I-A-Q2-165: log P (HCOOH): 2.72
30 | CC(NC(=O)c1ccc(-n2nc(C(F)(F)F)c(-c3ccc(Cl)c(F)c3)c2N)cc1)C(F)(F)F (stereo not drawn) [I-A-Q2-166] | I-A-Q2-166: log P (HCOOH): 3.84
31 | Nc1c(-c2ccc(Cl)c(F)c2)c(C(F)(F)F)nn1-c1ccc(C(=O)NC2CC2)cc1 [I-A-Q2-167] | I-A-Q2-167: log P (HCOOH): 3.19
32 | Nc1c(-c2ccc(Cl)c(F)c2)c(C(F)(F)F)nn1-c1ccc(C(=O)NCc2ccccn2)cc1 [I-A-Q2-168] | I-A-Q2-168: log P (HCOOH): 2.61
33 | CC(NC(=O)c1ccc(-n2nc(C(F)(F)F)c(-c3ccc(Cl)c(F)c3)c2N)cc1)C(F)(F)F (stereo not drawn) [I-A-Q2-169] | I-A-Q2-169: log P (HCOOH): 3.78
34 | Nc1c(-c2ccc(Cl)c(F)c2)c(C(F)(F)F)nn1-c1ccc(C(=O)NC2CC2)cc1 [I-A-Q2-170] | I-A-Q2-170: log P (HCOOH): 3.15
35 | Nc1c(-c2ccc(Cl)c(F)c2)c(C(F)(F)F)nn1-c1ccc(C(=O)NCc2ccccn2)cc1 [I-A-Q2-171] | I-A-Q2-171: log P (HCOOH): 2.53
36 | CC(NC(=O)c1ccc(-n2nc(C(F)(F)F)c(-c3cccc(Br)c3)c2N)cc1)C(F)(F)F (stereo not drawn) [I-A-Q2-172] | I-A-Q2-172: log P (HCOOH): 3.73
37 | Nc1c(-c2cccc(Br)c2)c(C(F)(F)F)nn1-c1ccc(C(=O)NC2CC2)cc1 [I-A-Q2-173] | I-A-Q2-173: log P (HCOOH): 3.11
38 | Nc1c(-c2cccc(Br)c2)c(C(F)(F)F)nn1-c1ccc(C(=O)NCc2ccccn2)cc1 [I-A-Q2-174] | I-A-Q2-174: log P (HCOOH): 2.50

Row | Structure (SMILES) | log P (HCOOH)
39 | CC(NC(=O)c1ccc(-n2nc(C(F)(F)F)c(-c3ccc(F)c(F)c3)c2N)cc1)C(F)(F)F (stereo not drawn) [I-A-Q2-175] | I-A-Q2-175: log P (HCOOH): 3.47
40 | Nc1c(-c2ccc(F)c(F)c2)c(C(F)(F)F)nn1-c1ccc(C(=O)NC2CC2)cc1 [I-A-Q2-176] | I-A-Q2-176: log P (HCOOH): 2.89
41 | Nc1c(-c2ccc(F)c(F)c2)c(C(F)(F)F)nn1-c1ccc(C(=O)NCc2ccccn2)cc1 [I-A-Q2-177] | I-A-Q2-177: log P (HCOOH): 2.27
42 | Cc1cc(C)cc(-c2c(C(F)(F)F)nn(-c3ccc(C(=O)NC(C)C(F)(F)F)cc3)c2N)c1 (stereo not drawn) [I-A-Q2-178] | I-A-Q2-178: log P (HCOOH): 3.89
43 | Cc1cc(C)cc(-c2c(C(F)(F)F)nn(-c3ccc(C(=O)NC4CC4)cc3)c2N)c1 [I-A-Q2-179] | I-A-Q2-179: log P (HCOOH): 3.24
44 | Cc1cc(C)cc(-c2c(C(F)(F)F)nn(-c3ccc(C(=O)NCc4ccccn4)cc3)c2N)c1 [I-A-Q2-180] | I-A-Q2-180: log P (HCOOH): 2.61
45 | CC(C)NC(=O)c1ccc(-n2nc(C(F)(F)F)c(-c3cccc(F)c3)c2N)cc1 [I-A-Q2-181] | I-A-Q2-181: log P (HCOOH): 2.98
46 | CC(NC(=O)c1ccc(-n2nc(C(F)(F)F)c(-c3cccc(F)c3)c2N)cc1)C(F)(F)F (stereo not drawn) [I-A-Q2-182] | I-A-Q2-182: log P (HCOOH): 3.33
47 | Nc1c(-c2cccc(F)c2)c(C(F)(F)F)nn1-c1ccc(C(=O)NCC(F)(F)F)cc1 [I-A-Q2-183] | I-A-Q2-183: log P (HCOOH): 3.11
48 | Nc1c(-c2cccc(F)c2)c(C(F)(F)F)nn1-c1ccc(C(=O)NC2CC2)cc1 [I-A-Q2-184] | I-A-Q2-184: log P (HCOOH): 2.76
49 | Nc1c(-c2cccc(F)c2)c(C(F)(F)F)nn1-c1ccc(C(=O)NCc2ccccn2)cc1 [I-A-Q2-185] | I-A-Q2-185: log P (HCOOH): 2.14
50 | CC(NC(=O)c1ccc(-n2nc(C(F)(F)F)c(-c3cccc(F)c3)c2N)cc1)c1ccccn1 (stereo not drawn) [I-A-Q2-186] | I-A-Q2-186: log P (HCOOH): 2.42
51 | CC(C)NC(=O)c1ccc(-n2nc(C(F)(F)F)c(-c3ccc(Br)cc3)c2N)cc1 [I-A-Q2-187] | I-A-Q2-187: log P (HCOOH): 3.42
52 | CC(NC(=O)c1ccc(-n2nc(C(F)(F)F)c(-c3ccc(Br)cc3)c2N)cc1)C(F)(F)F (stereo not drawn) [I-A-Q2-188] | I-A-Q2-188: log P (HCOOH): 3.78
53 | Nc1c(-c2ccc(Br)cc2)c(C(F)(F)F)nn1-c1ccc(C(=O)NCC(F)(F)F)cc1 [I-A-Q2-189] | I-A-Q2-189: log P (HCOOH): 3.53
54 | Nc1c(-c2ccc(Br)cc2)c(C(F)(F)F)nn1-c1ccc(C(=O)NC2CC2)cc1 [I-A-Q2-190] | I-A-Q2-190: log P (HCOOH): 3.15
55 | Nc1c(-c2ccc(Br)cc2)c(C(F)(F)F)nn1-c1ccc(C(=O)NCc2ccccn2)cc1 [I-A-Q2-191] | I-A-Q2-191: log P (HCOOH): 2.57
56 | CC(NC(=O)c1ccc(-n2nc(C(F)(F)F)c(-c3ccc(Br)cc3)c2N)cc1)c1ccccn1 (stereo not drawn) [I-A-Q2-192] | I-A-Q2-192: log P (HCOOH): 2.89
57 | CNC(=O)c1ccc(-n2nc(C(F)(F)F)c(-c3cc(Cl)cc(Cl)c3)c2N)cc1 [I-A-Q2-193] | I-A-Q2-193: log P (HCOOH): 3.42
